Assay [1] has as its target T1, D2-like dopamine receptors (Rattus norvegicus, UniProt P61169).
T1 construct: Striatal tissue from the brains of male Charles River CD rats; from tissue; host or cells: rat striatum (male Charles River CD rats), crude membrane pellet
The assay can be described thus: inhibition of tritiated (S)-sulpiride binding to D2-like dopamine receptors, rat striatal tissue. More on the design: species or system male Charles River CD rats. Particulars: for Ki: 4° C., 40 minutes, pH 7.7; for inhibition at 1 µM: at 10^-6 M, read-out: % displacement of specific binding, D2-like. The procedure:
Striatal tissue from the brains of male Charles River CD rats weighing between 140-250 g were homogenised in ice-cold 50 mM Tris-HCl buffer (pH 7.7 when measured at 25° C.) and centrifuged at 40,000 g for 10 minutes. The pellet was resuspended in Tris salts buffer (50 mM Tris-HCl buffer containing 120 mM NaCl, 5 mM KCl, 2 mM CaCl2 and 1 mM MgCl2 with the addition of 6 mM ascorbic acid; pH 7.7 when measured at 25° C.), and again centrifuged at 40,000 g for 10 minutes. The final pellet was stored at -80° C. Before each test the pellet was resuspended in Tris salts buffer (equivalent to 2 mg wet weight of tissue/ml). Aliquots (720 μl; equivalent to 1.44 mg wet weight of tissue/tube) of this suspension were then added to tubes containing the ligand (40 μl; 1 nM) and Tris salts buffer (40 μl; total binding) or spiroperidol (40 μl; 10 nM; non-specific binding) or test compound (40 μl; at a single concentration of 10^-6 M or at 6 concentrations ranging from 10^-11 -10^-4 M). The ligand was tritiated (S)-sulpiride and the mixture was incubated at 4° C. for 40 minutes before the incubation was terminated by rapid filtration.
The filters were washed with ice-cold Tris-HCl buffer and dried. The filters were punched out in to vials, scintillation fluid added and were left for about 20 hours before being counted by scintillation spectrophotometry. The percentage displacement of specific binding of the tritiated ligand was calculated for the single concentration (10^-6 M) of test compound. Displacement curves were then produced over a range of concentrations for those compounds which displaced ≥50% of specific binding of the tritiated ligand at 10^-6 M. The concentration which gave a 50% inhibition of specific binding (IC50) was obtained from the curve. The inhibition coefficient Ki was then calculated using the formula [formula] in which [ligand] is the concentration of the tritiated ligand used and KD is the equilibrium dissociation constant for the ligand.

The target in the next assay is T2, 5-HT1A (Rattus norvegicus, UniProt P19327).
T2 construct: Hippocampal tissue from the brains of male Charles River CD rats; from tissue; host or cells: rat hippocampus (male Charles River CD rats), crude membrane pellet
T2 sequence (P19327 1-422): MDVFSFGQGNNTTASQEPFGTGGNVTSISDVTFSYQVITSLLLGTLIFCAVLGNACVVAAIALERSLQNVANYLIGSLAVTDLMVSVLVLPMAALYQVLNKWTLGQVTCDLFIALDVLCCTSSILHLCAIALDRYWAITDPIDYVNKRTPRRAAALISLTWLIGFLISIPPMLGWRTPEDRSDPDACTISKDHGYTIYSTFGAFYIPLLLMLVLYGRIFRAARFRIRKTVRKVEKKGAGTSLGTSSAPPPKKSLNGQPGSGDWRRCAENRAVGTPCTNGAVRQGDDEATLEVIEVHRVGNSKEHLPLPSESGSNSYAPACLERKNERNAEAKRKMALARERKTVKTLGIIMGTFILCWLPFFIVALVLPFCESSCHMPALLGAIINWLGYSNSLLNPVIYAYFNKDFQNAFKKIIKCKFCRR
The assay can be described thus: inhibition of tritiated ligand ([3H]8-OH-DPAT) binding to 5-HT1A receptors, rat hippocampal tissue. Conditions: for inhibition at 1 µM: at 10^-6 M, read-out: % displacement of specific binding, 5-HT1A; for Ki: 25° C., 30 minutes, pH 7.7. More on the design: species or system male Charles River CD rats. Here is the method:
Hippocampal tissue from the brains of male Charles River CD rats weighing between 150-250 g were homogenised in ice-cold 50 mM Tris-HCl buffer (pH 7.7) when measured at 25° C., 1:40 w/v) and centrifuged at 30,000 g at 4° C. for 10 minutes. The pellet was rehomogenised in the same buffer, incubated at 37° C. for 10 minutes and centrifuged at 30,000 g at 4° C. for 10 minutes. The final pellet was resuspended in 50 mM Tris-HCl buffer (pH 7.7) containing 4 mM CaCl2, 0.1% L-ascorbic acid and 10 μM pargyline hydrochloride (equivalent to 6.25 mg wet weight of tissue/ml) and used immediately in the binding assay. Aliquots (400 μl; equivalent to 2.5 mg wet weight of tissue/tube) of this suspension were added to tubes containing the ligand (50 μl; 2 nM) and distilled water (50 μl; total binding) or 5-HT (50 μl; 10 μM; non-specific binding) or test compound (50 μl; at a single concentration of 10^-6 M or at 10 concentrations ranging from 10^-11 -10^-3 M). The ligand was [^3 H]8-hydroxy-2-(dipropylamino)tetralin ([^3 H]8-OH-DPAT) and the mixture was incubated at 25° C. for 30 minutes before the incubation was terminated by rapid filtration.
The filters were washed with ice-cold Tris-HCl buffer and dried. The filters were punched out into vials, scintillation fluid added and radioactivity determined by liquid scintillation counting. The percentage displacement of specific binding of the tritiated ligand was calculated for the single concentration (10^-6 M) of test compound. Displacement curves were then produced for those compounds which displaced ≥50% of specific binding of the tritiated ligand at 10^-6 M using a range of concentrations of the compound. The concentration which gave 50% inhibition of specific binding (IC50) was obtained from the curve. The inhibition coefficient Ki was then calculated using the formula [formula] in which [ligand] is the concentration of the tritiated ligand used and KD Is the equilibrium dissociation constant for the ligand.

T1 sequence (P61169 whole entry): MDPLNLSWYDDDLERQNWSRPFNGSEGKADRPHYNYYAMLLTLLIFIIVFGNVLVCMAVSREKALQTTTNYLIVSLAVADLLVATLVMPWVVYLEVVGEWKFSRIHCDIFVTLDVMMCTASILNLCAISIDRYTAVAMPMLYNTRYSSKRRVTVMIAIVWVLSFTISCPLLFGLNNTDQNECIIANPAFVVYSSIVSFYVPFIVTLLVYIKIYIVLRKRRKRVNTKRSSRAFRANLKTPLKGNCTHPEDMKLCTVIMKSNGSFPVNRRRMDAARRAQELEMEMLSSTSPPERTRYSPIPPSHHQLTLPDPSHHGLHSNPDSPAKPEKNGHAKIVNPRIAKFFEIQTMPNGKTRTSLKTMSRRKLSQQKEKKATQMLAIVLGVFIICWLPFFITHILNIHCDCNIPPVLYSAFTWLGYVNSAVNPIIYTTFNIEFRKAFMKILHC

`O=S(=O)(NCC1CCN(C[C@H]2COc3ccc(Cl)cc3O2)CC1)c1ccc(F)c(F)c1F` [Example 38, (S)-N-{[1-(7-Chloro-1,4-benzodioxan-2-ylmethyl)-4-piperidyl]methyl}-2,3,4-trifluorobenzenesulphonamide] gave a Ki in assay [1] of 330 nM. The inhibition at 1 µM at 5-HT1A was 95%.

As to `O=S(=O)(NCC1CCN(C[C@H]2COc3ccc(Cl)cc3O2)CC1)c1c(F)c(Br)cc(F)c1Br` [Example 39, (S)-2,5-Dibromo-N-{[1-(7-chloro-1,4-benzodioxan-2-ylmethyl)-4-piperidyl]methyl}-3,6-difluorobenzenesulphonamide], the Ki in assay [1] turned out to be 438 nM. For the same molecule, at 5-HT1A, the inhibition at 1 µM came out at 98%.

On to `O=S(=O)(NCC1CCN(C[C@H]2COc3ccc(Cl)cc3O2)CC1)c1ccccc1F` [Example 40, (S)-(-)-N-{[1-(7-Chloro-1,4-benzodioxan-2-ylmethyl)-4-piperidyl]methyl}-2-fluorobenzenesulphonamide], for which the inhibition at 1 µM in assay [1] turned out to be 107%; at 5-HT1A, 93%.

For the molecule `O=S(=O)(NCC1CCN(C[C@H]2COc3ccc(Cl)cc3O2)CC1)c1ccccc1Cl` [Example 41, (S)-(-)-2-Chloro-N-{[1-(7-chloro-1,4-benzodioxan-2-ylmethyl)-4-piperidyl]methyl}benzenesutphonamide], the inhibition at 1 µM in assay [1] turned out to be 106%; at 5-HT1A, 93%.

For the molecule `O=S(=O)(NCC1CCN(C[C@H]2COc3ccc(Cl)cc3O2)CC1)c1ccc(F)c(Cl)c1` [Example 42, (S)-(-)-3-Chloro-N-{[1-(7-chloro-1,4-benzodioxan-2-ylmethyl)-4-piperidyl]methyl}-4-fluoro-benzenesulphonamide], the inhibition at 1 µM in assay [1] worked out at 84%; at 5-HT1A it was 80%.

Consider `O=S(=O)(NCC1CCN(C[C@H]2COc3ccc(Cl)cc3O2)CC1)c1cccc(Cl)c1Cl` [Example 43, (S)-(-)-2,3-Dichloro-N-{[1-(7-chloro-1,4-benzodioxan-2-ylmethyl)-4-piperidyl]methyl}benzenesulphonamide], for which the inhibition constant Ki in assay [1] is 73 nM; at 5-HT1A, 1.5 nM.

Regarding `CC(=O)Nc1ccc(S(=O)(=O)NCC2CCN(C[C@H]3COc4ccc(Br)cc4O3)CC2)cc1` [Example 44, (S)-(-)-4-Acetamido-N-{[1-(7-bromo-1,4-benzodioxan-2-ylmethyl}-4-piperidyl]methyl)benzenesulphonamide], the Ki amounted to 23 nM in assay [1] and 14 nM on 5-HT1A.

`O=S(=O)(NCC1CCN(C[C@H]2COc3ccc(Br)cc3O2)CC1)c1ccccc1F` [Example 45, (S)-(-)-N-{[1-(7-Bromo-1,4-benzodioxan-2-ylmethyl)-4-piperidyl]methyl}-2-fluorobenzenesulphonamide]: the inhibition at 1 µM in assay [1] amounted to 109%; on 5-HT1A, 97%.

As to `O=S(=O)(NCC1CCN(C[C@H]2COc3ccc(Br)cc3O2)CC1)c1ccccc1Cl` [Example 46, (S)-(-)-N-{[1-(7-Bromo-1,4-benzodioxan-2-ylmethyl)-4-piperidyl]methyl}-2-chlorobenzenesulphonamide], the values for the inhibition at 1 µM (in assay [1]; at 5-HT1A) were 106% and 96%, respectively.

In the case of `O=S(=O)(NCC1CCN(C[C@H]2COc3ccc(Br)cc3O2)CC1)c1ccc(F)cc1F` [Example 47, (S)-(-)-N-{[1-(7-Bromo-1,4-benzodioxan-2-ylmethyl)-4-piperidyl]methyl}-2,4-difluorobenzenesulphonamide], the Ki was 48 nM in assay [1] and 16 nM at 5-HT1A.

Turning to `O=S(=O)(NCC1CCN(C[C@H]2COc3ccc(Br)cc3O2)CC1)c1ccc(F)c(Cl)c1` [Example 48, (S)-(-)-3-Chloro-N-{[1-(7-bromo-1,4-benzodioxan-2-ylmethyl)-4-piperidyl]methyl}-4-fluorobenzenesulphonamide], the inhibition at 1 µM in assay [1] worked out at 103%; at 5-HT1A, 88%.

As for `O=S(=O)(NCC1CCN(C[C@H]2COc3cc4c(cc3O2)OCO4)CC1)c1cccc(Cl)c1Cl` [Example 49, (S)-(-)-2,3-Dichloro-N-{[1-(^6,^7-methylenedioxy-1,4-benzodioxan-2-ylmethyl)-4-piperidyl]methyl}benzenesulphonamide], the inhibition at 1 µM was 89% in assay [1] and 77% at 5-HT1A.

A word on the Ki: it is the equilibrium dissociation constant of an inhibitor or competing ligand from its target. Lower therefore signals higher affinity.

For the origin of these results see patent US6136825A, “Sulfonamide compounds having 5-HT receptor activity” (Knoll Aktiengesellschaft, priority 1996, dated 2000).
